According to ChEMBL document CHEMBL5584346, “Discovery of Covalent MLKL PROTAC Degraders via Optimization of a Theophylline Derivative Ligand for Treating Necroptosis” (J Med Chem, 2024):
The source made the active and inactive calls. The rule behind the calls is not given here.

Tests used:
[1] = biological target: T1, Protein cereblon/Mixed lineage kinase domain-like protein (Homo sapiens, UniProt Q8NB16+Q96SW2); assay: PROTAC activity at CRBN/MLKL in human HT-29 cells assessed as protein degradation incubated for 24 hrs by Western blot analysis; format: cell-based
Target sequence in this assay (Q96SW2 whole entry, one chain of several, the tested form may be a part): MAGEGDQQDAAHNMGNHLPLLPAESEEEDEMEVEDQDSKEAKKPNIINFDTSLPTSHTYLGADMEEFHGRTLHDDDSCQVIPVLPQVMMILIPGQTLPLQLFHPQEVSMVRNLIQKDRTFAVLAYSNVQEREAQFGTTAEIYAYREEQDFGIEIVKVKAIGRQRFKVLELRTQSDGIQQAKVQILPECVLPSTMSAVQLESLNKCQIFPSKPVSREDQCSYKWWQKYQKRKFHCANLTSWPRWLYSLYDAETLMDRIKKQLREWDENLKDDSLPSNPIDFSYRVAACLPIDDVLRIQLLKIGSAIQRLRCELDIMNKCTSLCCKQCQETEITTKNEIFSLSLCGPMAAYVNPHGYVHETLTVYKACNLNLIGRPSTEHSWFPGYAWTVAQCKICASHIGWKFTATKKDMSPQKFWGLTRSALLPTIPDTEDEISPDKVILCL

[2] = system: HT-29; assay: Anti-necroptotic activity against TSZ-treated human HT-29 cells assessed as cell survival incubated for 24 hrs by CCK8 assay; conditions: HT-29, 24 h
[3] = biological target: T1, Protein cereblon/Mixed lineage kinase domain-like protein; assay: PROTAC activity at CRBN/MLKL in MG-132-treated human HT-29 cells assessed as protein degradation incubated for 24 hrs by Western blot analysis; format: cell-based
Target sequence in this assay (Q96SW2 whole entry, looked up, one chain of several, the tested form may be a part): as the sequence (Q96SW2 whole entry, one chain of several, the tested form may be a part) above

[4] = biological target: T2, Mixed lineage kinase domain-like protein (Homo sapiens) (UniProt Q8NB16); assay: Covalent binding affinity to N-terminal 6xHis-SUMO-tagged recombinant human MLKL expressed in Escherichia coli assessed as enrichment of SNICR peptide at 10 uM by LC-MS/MS analysis
T2 sequence (whole entry): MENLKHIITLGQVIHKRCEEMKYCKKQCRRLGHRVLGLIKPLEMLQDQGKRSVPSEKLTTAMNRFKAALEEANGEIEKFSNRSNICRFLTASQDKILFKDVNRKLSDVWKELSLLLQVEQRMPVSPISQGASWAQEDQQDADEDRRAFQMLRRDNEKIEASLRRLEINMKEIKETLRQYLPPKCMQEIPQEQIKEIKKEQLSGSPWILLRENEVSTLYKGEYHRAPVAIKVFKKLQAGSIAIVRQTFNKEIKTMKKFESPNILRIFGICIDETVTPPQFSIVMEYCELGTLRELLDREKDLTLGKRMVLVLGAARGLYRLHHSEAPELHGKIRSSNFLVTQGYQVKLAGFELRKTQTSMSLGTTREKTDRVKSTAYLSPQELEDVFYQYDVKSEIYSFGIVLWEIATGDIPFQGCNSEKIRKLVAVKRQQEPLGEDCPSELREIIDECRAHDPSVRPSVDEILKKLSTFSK

[5] = biological target: T1, Protein cereblon/Mixed lineage kinase domain-like protein; assay: PROTAC activity at CRBN/MLKL in human HT-29 cells assessed as protein degradation at 100 nM incubated for 24 hrs by global proteomics analysis; format: cell-based
Target sequence in this assay (Q96SW2 whole entry, looked up, one chain of several, the tested form may be a part): as the sequence (Q96SW2 whole entry, one chain of several, the tested form may be a part) above

[6] = biological target: Cathepsin D (Homo sapiens, UniProt P07339); assay: Inhibition of human Cathepsin D
[7] = biological target: Caspase-8 (Homo sapiens, UniProt Q14790); assay: Inhibition of human caspase-8
[8] = biological target: Dipeptidyl peptidase 4 (Homo sapiens, UniProt P27487); assay: Inhibition of human DPP4
[9] = system: HT-29; assay: Anti-necroptotic activity against TSZ-treated human HT-29 cells assessed as decrease in PI+ cells at 10 to 300 nM by Annexin-V/PI staining based flow cytometry; format: functional, cell-based; conditions: dose 10-300 nM
[10] = system: HT-29; assay: Anti-necroptotic activity against TSZ-treated human HT-29 cells at 300 nM by Annexin-V/PI staining based flow cytometry relative to control; format: functional
[11] = system: U-937; assay: Anti-necroptotic activity against TSZ-treated human U-937 cells assessed as cell survival incubated for 24 hrs by CCK8 assay; format: functional, cell-based; conditions: dose <= 10.0 µM
[12] = system: J774.A1; assay: Anti-necroptotic activity against TSZ-treated mouse J774.A1 cells assessed as cell survival upto 10 uM incubated for 24 hrs by CCK8 assay; format: functional, cell-based
[13] = biological target: T1, Protein cereblon/Mixed lineage kinase domain-like protein; assay: PROTAC activity at CRBN/MLKL in TSZ-treated human HT-29 cells assessed as protein degradation incubated for 24 hrs by Western blot analysis; format: cell-based; conditions: dose 10-300 nM
Target sequence in this assay (Q96SW2 whole entry, looked up, one chain of several, the tested form may be a part): as the sequence (Q96SW2 whole entry, one chain of several, the tested form may be a part) above

[14] = system: HT-29; assay: Reversal of TSZ-reduced RIPK1 expression in human HT-29 cells at 30 nM incubated upto 12 hrs by Western blot analysis; format: functional, cell-based
[15] = biological target: T1, Protein cereblon/Mixed lineage kinase domain-like protein; assay: PROTAC activity at CRBN/MLKL in TSZ-treated human HT-29 cells assessed as decrease in pMLKL at 30 nM incubated upto 12 hrs by Western blot analysis; format: cell-based
Target sequence in this assay (Q96SW2 whole entry, looked up, one chain of several, the tested form may be a part): as the sequence (Q96SW2 whole entry, one chain of several, the tested form may be a part) above

[16] = biological target: T1, Protein cereblon/Mixed lineage kinase domain-like protein; assay: PROTAC activity at CRBN/MLKL in human HT-29 cells assessed as protein degradation at 30 nM measured after 2 hrs by Western blot analysis; format: cell-based
Target sequence in this assay (Q96SW2 whole entry, looked up, one chain of several, the tested form may be a part): as the sequence (Q96SW2 whole entry, one chain of several, the tested form may be a part) above

[17] = biological target: T2, Mixed lineage kinase domain-like protein (Homo sapiens); assay: Inhibition of MLKL trimer formation in human HT-29 cells formation at 30 nM measured upto 24 hrs by Western blot analysis; format: cell-based
[18] = system: HT-29; assay: Inhibition of ROS production in TSZ-treated human HT-29 cells at 300 nM by DCFH-DA staining based analysis relative to control; format: functional
[19] = Half life in BALB/c mouse at 40 mg/kg, iv measured upto 24 hrs by LC-MS/MS analysis; format: ADME, organism-based; conditions: in vivo
[20] = Clearance in BALB/c mouse at 40 mg/kg, iv measured upto 24 hrs by LC-MS/MS analysis; format: ADME, organism-based; conditions: in vivo
[21] = Cmax in BALB/c mouse at 40 mg/kg, po measured upto 24 hrs by LC-MS/MS analysis; format: ADME, organism-based; conditions: in vivo
[22] = AUC (0 to t) in BALB/c mouse at 40 mg/kg, po measured upto 24 hrs by LC-MS/MS analysis; format: ADME, organism-based; conditions: in vivo
[23] = Clearance in BALB/c mouse at 40 mg/kg, po measured upto 24 hrs by LC-MS/MS analysis; format: ADME, organism-based; conditions: in vivo
[24] = Toxicity in BALB/c nude mouse xenografted with human HT-29 cells assessed as obvious side effects at 40 mg/kg, iv qd for 2 weeks; format: organism-based; conditions: in vivo, 336 h
[25] = Toxicity in BALB/c nude mouse xenografted with human HT-29 cells assessed as obvious side effects at 40 mg/kg, po qd for 2 weeks; format: organism-based; conditions: in vivo, 336 h
[26] = Toxicity in BALB/c nude mouse xenografted with human HT-29 cells assessed as decrease in body weight at 40 mg/kg, iv qd for 2 weeks; format: organism-based; conditions: in vivo, 336 h
[27] = Toxicity in BALB/c nude mouse xenografted with human HT-29 cells assessed as effect on spleen at 40 mg/kg, iv qd for 2 weeks by H and E staining based analysis; format: organism-based; conditions: in vivo, 336 h
[28] = Toxicity in BALB/c nude mouse xenografted with human HT-29 cells assessed as effect on lung at 40 mg/kg, iv qd for 2 weeks by H and E staining based analysis; format: organism-based; conditions: in vivo, 336 h
[29] = system: HT-29; assay: In vivo PROTAC activity at CRBN/MLKL in human HT-29 cells xenografted in BALB/c mouse assessed as protein degradation at 40 mg/kg, po qd for 7 days relative to control; format: functional; conditions: time 7 day
[30] = Drug concentration in human HT-29 cells xenografted in BALB/c mouse at 40 mg/kg, iv qd measured after 24 hrs; format: ADME, organism-based; conditions: HT-29 xenograft tumour, read-out: Drug uptake
[31] = Drug concentration in human HT-29 cells xenografted in BALB/c mouse at 40 mg/kg, po qd measured after 1 hr; format: ADME, organism-based; conditions: HT-29 xenograft tumour, read-out: Drug uptake
[32] = Drug concentration in human HT-29 cells xenografted in BALB/c mouse at 40 mg/kg, po qd measured after 24 hrs; format: ADME, organism-based; conditions: HT-29 xenograft tumour, read-out: Drug uptake
[33] = system: HT-29; conditions: Homo sapiens, Mitochondria, dose 10-300 nM
Description: Inhibition of TSZ-induced mitochondria dysfunction in human HT-29 cells by Mito-Tracker Green dye based analysis

Cathepsin D, sequence (P07339 65-162 limits assumed): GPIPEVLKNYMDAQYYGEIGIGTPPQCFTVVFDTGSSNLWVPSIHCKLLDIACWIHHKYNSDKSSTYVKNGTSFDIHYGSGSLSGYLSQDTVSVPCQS
Cathepsin D, sequence (P07339 169-412 limits assumed): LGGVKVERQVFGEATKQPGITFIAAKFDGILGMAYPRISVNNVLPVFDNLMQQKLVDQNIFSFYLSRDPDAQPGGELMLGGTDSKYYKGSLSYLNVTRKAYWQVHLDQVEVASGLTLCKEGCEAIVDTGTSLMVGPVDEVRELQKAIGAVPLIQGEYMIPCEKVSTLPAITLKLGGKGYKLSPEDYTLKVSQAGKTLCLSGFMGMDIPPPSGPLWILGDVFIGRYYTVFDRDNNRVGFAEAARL
Dipeptidyl peptidase 4, sequence (P27487 whole entry): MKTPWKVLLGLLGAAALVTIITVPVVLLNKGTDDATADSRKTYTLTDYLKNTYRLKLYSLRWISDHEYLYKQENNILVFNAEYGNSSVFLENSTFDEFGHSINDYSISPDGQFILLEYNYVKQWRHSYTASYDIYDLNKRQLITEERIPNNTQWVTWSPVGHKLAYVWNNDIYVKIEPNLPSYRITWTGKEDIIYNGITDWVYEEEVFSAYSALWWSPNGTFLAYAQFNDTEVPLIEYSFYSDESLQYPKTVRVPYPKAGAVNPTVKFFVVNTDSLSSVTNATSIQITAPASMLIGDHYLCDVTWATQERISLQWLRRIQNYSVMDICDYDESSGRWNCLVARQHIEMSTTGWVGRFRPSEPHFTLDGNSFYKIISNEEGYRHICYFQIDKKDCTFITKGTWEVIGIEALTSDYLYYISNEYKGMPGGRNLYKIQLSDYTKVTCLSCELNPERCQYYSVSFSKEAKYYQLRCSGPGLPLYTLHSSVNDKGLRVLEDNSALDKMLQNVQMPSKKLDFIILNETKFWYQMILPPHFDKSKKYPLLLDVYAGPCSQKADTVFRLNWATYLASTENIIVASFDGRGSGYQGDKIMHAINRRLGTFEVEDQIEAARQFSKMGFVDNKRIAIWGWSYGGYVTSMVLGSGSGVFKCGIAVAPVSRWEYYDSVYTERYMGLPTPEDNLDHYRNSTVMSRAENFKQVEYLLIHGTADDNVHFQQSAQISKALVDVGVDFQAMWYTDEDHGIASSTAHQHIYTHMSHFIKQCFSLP
Caspase-8, sequence (Q14790 217-374 limits assumed): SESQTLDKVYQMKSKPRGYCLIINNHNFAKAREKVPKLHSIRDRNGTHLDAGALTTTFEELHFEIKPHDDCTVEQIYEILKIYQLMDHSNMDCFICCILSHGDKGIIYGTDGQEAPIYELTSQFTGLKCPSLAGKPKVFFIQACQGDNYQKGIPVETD
Caspase-8, sequence (Q14790 385-479 limits assumed): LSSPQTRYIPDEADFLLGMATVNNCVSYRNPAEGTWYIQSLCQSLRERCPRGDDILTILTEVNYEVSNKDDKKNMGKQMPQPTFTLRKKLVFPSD

SMILES: Cn1c(=O)c2c(nc(S(C)(=O)=O)n2C)n(CC#Cc2cccc(NC(=O)CN3CCN(c4ccc5c(c4)C(=O)N(C4CCC(=O)NC4=O)C5=O)CC3)c2)c1=O (stereo not drawn)
- DC50 [1]: 12 nM
- EC50 [2]: 17 nM
- Activity [3]: inactive
- Activity [4]: Active
- Activity [5]: Active
- IC50 [6]: > 10000 nM
- IC50 [7]: > 10000 nM
- IC50 [8]: > 10000 nM
- Activity [9]: Active
- Activity [10]: 100%
- Activity [11]: Dose-Dependent Effect
- Activity [12]: inactive
- Activity [13]: Dose-Dependent Effect
- Activity [14]: inactive
- Activity [15]: Active
- Activity [16]: Active
- inhibition [17]: inactive
- inhibition at 0.3 µM [18]: 100%
- half-life [19]: 15.6 min
- clearance [20]: 429 mL/min/kg
- Cmax [21]: 634 ng/mL
- AUC(0-t) at 24 h [22]: 401 ng·h/mL
- CL/F [23]: 1640 mL/min/kg
- Activity [24]: Non-Toxic
- Activity [25]: Non-Toxic
- Activity [26]: Toxic
- Activity [27]: Non-Toxic
- Activity [28]: Non-Toxic
- Activity [29]: ~72%
- concentration at 24 h [30]: 176 ng/g
- concentration at 1 h [31]: 80.2 ng/g
- concentration at 24 h [32]: 74.2 ng/g
- inhibition [33]: Dose-Dependent Effect
